Assay results taken from US20070020196A1, “Inhalant formulation containing sulfoalkyl ether cyclodextrin and corticosteroid prepared from a unit dose suspension” (priority 2003, published 2007).

Key:
[1] = Molar ratio SAE-CD:corticosteroid at saturated solubility (phase solubility binding study); format: physicochemical
[2] = Light stability of budesonide under fluorescent lights; format: physicochemical
Excerpt: Samples of the above solutions were also placed in a chamber under a bank of fluorescent lights. Vials were periodically removed and assayed for budesonide. […] The loss of budesonide was first order and independent of pH.

[3] = Solubility of selected steroids enhanced by cyclodextrins (phase solubility); details: thermodynamic from solid
[4] = Density of CAPTISOL solutions (pycnometer); format: physicochemical; details: 25° C.
Protocol: The concentration of SAE-CD in solution can be expressed on a weight to weight or weight to volume basis; however, these two units are interconvertible. When a known weight of cyclodextrin is dissolved in a known weight of water, the % w/w cyclodextrin concentration is determined by dividing the cyclodextrin weight in grams by the total weight (cyclodextrin+water weight) in like units and multiplying by 100. When a known weight of cyclodextrin is dissolved to a known total volume, the % w/v cyclodextrin concentration is determined by dividing the cyclodextrin weight in grams by the total volume in milliliters and multiplying by 100. The correlation between the two cyclodextrin concentration percentages was experimentally determined by preparing various % w/w cyclodextrin solutions and measuring the density of each with a pycnometer at 25° C.

[5] = Viscosity of aqueous SAE-CD solutions (cone and plate viscometer); format: physicochemical; details: 25 C
Protocol: The performance of an inhalable solution of the invention in a nebulizer may depend upon the viscosity of the solution in its reservoir, the nebulization solution. Viscosity of the inhalable composition can have an impact on percentage of nebulization composition emitted from a nebulizer, output rate of nebulized corticosteroid and droplet size distribution.
The viscosity of aqueous solutions containing SAE-CD were measured using a cone and plate viscometer.
A Brookfield Programmable DV-III+ Rheometer, CPE-40 cone and CPE 40Y plate (Brookfield Engineering Laboratories, Middleboro, Mass.) was used to make measurements on 0.5 ml samples at 1, 2, 3, 5 and 10 rpm. Samples were sheered for approximately 5 revolutions prior to each measurement. This allowed accurate rheological characterization of the samples. The temperature of all samples was equilibrated to 25+/−1 degree centigrade using a double wall viscometer cone supplied with water from an electronically controlled thermostatic circulating water bath (Model, 8001, Fisher Scientific, Pittsburgh, Pa.). The viscometer was calibrated using 5 and 50 centipoise using silicon oil calibration standards. Viscosity measurements were made at 5 or more rotation speeds to look for sheer thinning behavior (viscosities that decrease as the rate of sheer increases). Higher rotation speeds result in increased rates of sheer.

[6] = Tonicity of SBE7-β-CD solutions with respect to blood; format: physicochemical; details: in water
Excerpt: An osmotic agent can be used in the compositions to enhance the overall comfort to the patient upon delivery of the corticosteroid composition. Osmotic agents can be added to adjust the tonicity of SAE-CD containing solutions. Osmolality is related to concentration of SAE-CD in water. At SBE7-β-CD concentrations below about 11-13% w/v, the solutions are hypotonic or hypoosmotic with respect to blood and at SBE7-β-CD concentrations above about 11-13% w/v the SBE7-β-CD containing solutions are hypertonic or hyperosmotic with respect to blood. When red blood cells are exposed to solutions that are hypo- or hypertonic, they can shrink or swell in size, which can lead to hemolysis. As noted above and in FIG. 1, SBE-CD is less prone to induce hemolysis than other derivatized cyclodextrins. Suitable osmotic agents include any low molecular weight water-soluble species pharmaceutically approved for pulmonary and nasal delivery such as sodium chloride, lactose and glucose. The formulation of the invention can also include biological salt(s), potassium chloride, or other electrolyte(s).

red blood cells = details: concentrations typically used to solubilize pharmaceutical formulations; cited from earlier work
[7] = male, human, in vivo; cited from earlier work

In the case of CCCC1O[C@@H]2C[C@H]3[C@@H]4CCC5=CC(=O)C=C[C@]5(C)[C@H]4[C@@H](O)C[C@]3(C)[C@]2(C(=O)CO)O1 (stereo partly drawn) [Budesonide, (R,S)-11β,16α,17,21-tetrahydroxypregna-1,4-diene-3,20-dione cyclic 16,17-acetal with butyraldehyde], the “Approximate Molar Ratio at Saturated Solubility of Corticosteroid (SAE-CD: corticosteroid)” value (“Approximate Molar Ratio” for short) ([1]; SAE-α-CD) is reported as ~12, the “Approximate Molar Ratio” value ([1]; SAE-β-CD) is reported as ~16 and the “Approximate Molar Ratio” value ([1]; SAE-γ-CD (SBE5.2)) is reported as ~10.8 (SBE5.2),. The “Approximate Molar Ratio” value ([1]; SAE-γ-CD (SBE6.1)) was ~13 (SBE6.1),, the “Approximate Molar Ratio” value ([1]; SAE-γ-CD (SPE5.4)) was ~10.1 (SPE5.4) and the “Light Stability, Pseudo 1st Order Rate constant” value (from here on “Light Stability”) ([2]; Captisol, pH 4) was 0.0585 h⁻¹. The “Light Stability” value ([2]; Captisol, pH 6) was 0.0562 h⁻¹, the “Light Stability” value ([2]; No Captisol, pH 4) was 0.0812 h⁻¹ and the “Light Stability” value ([2]; No Captisol, pH 6) was 0.0822 h⁻¹. The solubility ([3]; aqueous cyclodextrin solution, aqueous with cosolvent or surfactant or cyclodextrin, Solubility of steroid, (SBE)5.2 γ-CD 0.04 M) was 3.76 mM, the solubility ([3]; aqueous cyclodextrin solution, aqueous with cosolvent or surfactant or cyclodextrin, Solubility of steroid, (SBE)5.2 γ-CD 0.1 M) was 8.62 mM and the solubility ([3]; aqueous cyclodextrin solution, aqueous with cosolvent or surfactant or cyclodextrin, Solubility of steroid, (SBE)6.1 γ-CD 0.04 M) was 3.07 mM. For the same compound, the solubility ([3]; aqueous cyclodextrin solution, aqueous with cosolvent or surfactant or cyclodextrin, Solubility of steroid, (SBE)6.1 γ-CD 0.08 M) was 6.99 mM, the solubility ([3]; aqueous cyclodextrin solution, aqueous with cosolvent or surfactant or cyclodextrin, Solubility of steroid, (SBE)6.7 β-CD 0.0465 M) was 2.55 mM and the solubility ([3]; aqueous cyclodextrin solution, aqueous with cosolvent or surfactant or cyclodextrin, Solubility of steroid, (SBE)6.7 β-CD 0.0950 M) was 4.28 mM. For the same compound, the solubility ([3]; aqueous cyclodextrin solution, aqueous with cosolvent or surfactant or cyclodextrin, Solubility of steroid, (SBE)7 α-CD 0.04 M) was 3.48 mM, the solubility ([3]; aqueous cyclodextrin solution, aqueous with cosolvent or surfactant or cyclodextrin, Solubility of steroid, (SBE)7 α-CD 0.08 M) was 5.98 mM and the solubility ([3]; aqueous cyclodextrin solution, aqueous with cosolvent or surfactant or cyclodextrin, Solubility of steroid, (SBE)9.7 γ-CD […]) was 4.53 mM. The solubility ([3]; aqueous cyclodextrin solution, aqueous with cosolvent or surfactant or cyclodextrin, Solubility of steroid, (SPE)5.4 γ-CD 0.04 M) was 4.01 mM, the solubility ([3]; aqueous cyclodextrin solution, aqueous with cosolvent or surfactant or cyclodextrin, Solubility of steroid, (SPE)5.4 γ-CD 0.08 M) was 7.74 mM and the solubility ([3]; aqueous cyclodextrin solution, aqueous with cosolvent or surfactant or cyclodextrin, Solubility of steroid, (SPE)7 β-CD 0.08 M) was 2.42 mM. It also gave a solubility ([3]; aqueous cyclodextrin solution, aqueous with cosolvent or surfactant or cyclodextrin, Solubility of steroid, β-CD 0.015M) of 0.813 mM, a solubility ([3]; aqueous cyclodextrin solution, aqueous with cosolvent or surfactant or cyclodextrin, Solubility of steroid, γ-CD 0.035 M) of 0.101 mM and a solubility ([3]; aqueous cyclodextrin solution, aqueous with cosolvent or surfactant or cyclodextrin, Solubility of steroid, γ-CD 0.1 M) of 0.041 mM. The solubility ([3]; aqueous cyclodextrin solution, aqueous with cosolvent or surfactant or cyclodextrin, [Steroid] solubility, (SBE)6.1 γ-CD (0.04 M)) was 3.07 mM, the solubility ([3]; aqueous cyclodextrin solution, aqueous with cosolvent or surfactant or cyclodextrin, [Steroid] solubility, Captisol (0.04 M)) was 2.55 mM and the solubility ([3]; water, Solubility of steroid, H2O, no CD) was 0.0659 mM. It also gave a solubility ([3]; water, [Steroid] Intrinsic Solubility (in H2O), in H2O) of 0.066 mM.

With “Sulfobutyl ether β-cyclodextrin [Captisol]” the Density ([4]; 8.5 % w/w Captisol) was 1.041 g/mL, the Density ([4]; 29.8 % w/w Captisol) was 1.149 g/mL and the Density ([4]; 39.7 % w/w Captisol) was 1.202 g/mL. The Density ([4]; 49.4 % w/w Captisol) was 1.259 g/mL, the Density ([4]; 59.4 % w/w Captisol) was 1.320 g/mL and the Density ([4]; […] w/w Captisol) was 1.095 g/mL. The Viscosity ([5]; 8.5 % w/w Captisol) was 1.75 Cp, the Viscosity ([5]; 29.8 % w/w Captisol) was 5.91 Cp and the Viscosity ([5]; 39.7 % w/w Captisol) was 17.0 Cp. It also gave a Viscosity ([5]; 49.4 % w/w Captisol) of 51.9 Cp, a Viscosity ([5]; 59.4 % w/w Captisol) of 527.0 Cp and a Viscosity ([5]; […] w/w Captisol) of 2.78 Cp. For the same compound, the “SBE7-β-CD concentration below which solutions are hypotonic and above which hypertonic with respect to blood” value [6] was 11-13 % w/v and the Hemolytic behavior (red blood cells) was “essentially no hemolytic behavior”.

In the case of CCNC(=O)[C@@H]1CCCN1C(=O)[C@H](CCCNC(=N)N)NC(=O)[C@H](CC(C)C)NC(=O)[C@@H](CC(C)C)NC(=O)[C@H](Cc1ccc(O)cc1)NC(=O)[C@H](CO)NC(=O)[C@H](Cc1c[nH]c2ccccc12)NC(=O)[C@H](Cc1c[nH]cn1)NC(=O)[C@@H]1CCC(=O)N1 [leuprolide acetate], the Bioavailability [7] is listed as 2.4% and the “Bioavailability compared with i.v.” value [7] is listed as 94%.
